Article PMC6583902 (Biochemistry, 2013)

Tested on: C. elegans Sem-5 (sex muscle five) Src-homology 3 (SH3) domain
Conditions: stated in words

Question: For Ac-VPPXVPPRRRY [proline], which “apparent binding constant measured by ITC” value is on record?
Answer: only in the millimolar range
